Measured values taken from patent US20250283037A1, “METHODS FOR STIMULATING AND TRANSDUCING T CELLS” (Juno Therapeutics GmbH, priority 2021, published 2025).

Experiments:
[1] = biological target: T1, mutein streptavidin designated Strep-tactin® (e.g. containing the sequence set forth in SEQ ID NO: 4) (Streptomyces avidinii, UniProt P22629, E68V/S69T/V71R); details: general statement in the description, no experiment described; read-out: binding affinity KD for Strep-tactin®; cited from earlier work
T1 construct: N-terminal methionine in place of Ala13 (N)
T1 sequence (P22629 other isoform, or with tags, fused parts or gaps E68V/S69T/V71R): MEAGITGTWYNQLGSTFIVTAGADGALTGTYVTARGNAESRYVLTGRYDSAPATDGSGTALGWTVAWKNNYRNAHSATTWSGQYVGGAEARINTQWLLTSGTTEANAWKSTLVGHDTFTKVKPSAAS

mTOR = test: Intracellular S6 phosphorylation in engineered T cells; type: cell-based, human; details: 1 μM (also printed 1 mM) during production; live CD8+ T cells
Description: CD4+ and CD8+ T cells were isolated by immunoaffinity-based enrichment from leukapheresis samples from human donor subjects. […] The T cells cultured with our without Compound 63 were incubated overnight (approximately 24 hr) at 37° C., and were then transduced in serum-free culture media with our without Compound 63 ([…]) with a lentiviral vector encoding an anti-CD19 CAR. […] Following transduction, the cells were incubated in serum free media without recombinant cytokines (basal media) and with or without Compound 63 (1 mM) and allowed to incubate at about 37.0° C. in an incubator for up to 96 hours after initiation of the stimulation with the anti-CD3/anti-CD28 oligomeric stimulatory reagent (until day 5 of the process). […] Following incubation CD4+ and CD8+ T cells from each donor were harvested, formulated, and cryofrozen. The cryofrozen engineered CD4+ and CD8+ T cells were thawed, and T cells were assessed for intracellular S6 phosphorylation, a ribosomal protein and marker of mTOR inhibition, and co-stained for surface expression of CD4 or CD8 and for CCR7 and CD45RA as markers of memory subsets. pS6 expression in live CD8+ T cells by memory subsets was shown by the expression of CCR7 and CD45RA as shown in FIG. 16A.

CD4+ and CD8+ T cells [2] = test: Viability and live cell count of engineered T cell composition; type: cell-based, human; details: with vs without compound during production
CAR-T cells = test: Intracellular caspase expression in thawed CAR-T cells; type: cell-based, human; details: vs cells not incubated with compound
Description: (§1) CD4+ and CD8+ T cells were isolated by immunoaffinity-based enrichment from leukapheresis samples from human donor subjects. At day 1, isolated CD4+ and CD8+ T cells were mixed 1:1 and stimulated with an anti-CD3/anti-CD28 oligomeric stimulatory reagent generated as described in Example 1 in serum-free media supplemented with recombinant IL-2 (100 IU/mL), recombinant IL-7 (600 IU/mL), and recombinant IL-15 (100 IU/mL) with or without 1 μM of 2-(3-hydroxyphenyl)-9-(2-isopropylphenyl)-8-oxo-8,9-dihydro-7H-purine-6-carboxamide (Compound 63). The T cells cultured with our without Compound 63 were incubated overnight (approximately 24 hr) at 37° C., and were then transduced in serum-free culture media with our without Compound 63 ([…]) with a lentiviral vector encoding an anti-CD19 CAR. The CAR contained an scFv antigen-binding domain specific for CD19 (derived from FMC63), a CD28 transmembrane region, a 4-1BB costimulatory signaling region, and a CD3-zeta derived intracellular signaling domain. Following transduction, the cells were incubated in serum free media without recombinant cytokines (basal media) and with or without Compound 63 (1 mM) and allowed to incubate at about 37.0° C. in an incubator for up to 96 hours after initiation of the stimulation with the anti-CD3/anti-CD28 oligomeric stimulatory reagent (until day 5 of the process). […]

[3] = test system: CD8+ T cells and CD4+ T cells; test: CD27/CCR7 phenotypic subset profile by flow cytometry; type: cell-based, human
Description: as §1

CD4+ and CD8+ T cells [4] = test: Intracellular cytokines after PMA/Ionomycin and Golgi inhibitor; type: cell-based, human; details: PMA/Ionomycin stimulation; engineered CD8+ and CD4+ T cells
Description: as §1

anti-CD19 CAR T cells = test: Long-term stimulation with anti-idiotype antibody beads, expansion and survival; type: cell-based, human; details: 12 days, anti-ID antibody beads
Description: as §1, with “domain.” for “domain. Following transduction, the cells were incubated in serum free media without recombinant cytokines (basal media) and with or without Compound 63 (1 mM) and allowed to incubate at about 37.0° C. in an incubator for up to 96 hours after initiation of the stimulation with the anti-CD3/anti-CD28 oligomeric stimulatory reagent (until day 5 of the process).”
To further assess the functional activity of the cells, the generated T cell compositions were stimulated long-term over 12 days with beads conjugated with an anti-idiotype (ID) antibody against the anti-CD19 CAR, and expansion and survival of the cells were monitored (FIG. 17F, left panel) and total expansion metric calculated by area under the growth curve (FIG. 17F, right panel, AUC).

Compound | Kd [1] [µM] | pS6 mean fluorescence intensity of memory T cell subsets (Temra, Tem, Tcm) (mTOR) | percentage of viable cells over time (CD4+ and CD8+ T cells [2]) | total number of viable cells over time (CD4+ and CD8+ T cells [2]) | intracellular caspase expression (CAR-T cells) | phenotypic subset profile by CD27 and/or CCR7 expression [3] | level of intracellular cytokines IL2, IFNg, or TNF (CD4+ and CD8+ T cells [4]) | function (expansion, AUC) following long-term CAR-specific stimulation (anti-CD19 CAR T cells)
WSHPQFEK [Strep-tag® II] | ~1 |  |  |  |  |  |  | 
CC(C)c1ccccc1-n1c(=O)[nH]c2c(C(N)=O)nc(-c3cccc(O)c3)nc21 [Compound 63, 2-(3-hydroxyphenyl)-9-(2-isopropylphenyl)-8-oxo-8,9-dihydro-7H-purine-6-carboxamide] |  | decreased | no significant effect | no significant effect | less | did not substantially alter | substantially improved | improved function
